This assay has as its system Pfeiffer cells, lymphoma cells having EZH2 mutation (A677G). As to the kind of experiment: Proliferation inhibition of cells of hematologic malignancies (CCK-8, 11 days). The following applies: 11 days culture, read-out: Cell proliferation inhibitory effect (IC50). Type of assay: cell-based. A digest of the protocol:
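Pfeiffer lymphoma cells (EZH2 A677G) in RPMI1640 with 10% FBS were seeded at 10,000 cells/well and exposed to test material for 11 days, with compound replaced every 3–4 days. Viability was read by CCK-8 absorbance at 450 nm, and IC50 was derived by non-linear regression curve fitting.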

Where two headings read alike, the source gives them in different places.

As to `CSc1cc(C)[nH]c(=O)c1CNC(=O)c1cc(-c2ccc(N3CCOCC3)nc2)c2c(c1C)OC(C)(C1CCN(CC(F)(F)F)CC1)O2` (stereo not drawn) [Compound 61, 2,4-dimethyl-N-((6-methyl-4-(methylthio)-2-oxo-1,2-dihydropyridin-3-yl)methyl)-7-(6-morpholinopyridin-3-yl)-2-(1-(2,2,2-trifluoro)piperidin-4-yl)benzo[d][1,3]dioxole-5-carboxamide], the IC50 (Homo sapiens, Pfeiffer, 264 h) was no more than 10 nM.

For the molecule `CSc1cc(C)[nH]c(=O)c1CNC(=O)c1cc(-c2ccc(N3CCOCC3)nc2)c2c(c1C)OC(C)(C1CCN(CC(F)(F)F)CC1)O2` (stereo not drawn) [Compound 63, 2,4-dimethyl-N-((6-methyl-4-(methylthio)-2-oxo-1,2-dihydropyridin-3-yl)methyl)-7-(6-morpholinopyridin-3-yl)-2-(1-(2,2,2-trifluoro)piperidin-4-yl)benzo[d][1,3]dioxole-5-carboxamide], the IC50 was no less than 100 nM.

For the molecule `CSc1cc(C)[nH]c(=O)c1CNC(=O)c1cc(-c2cnc(N3CCOCC3)nc2)c2c(c1C)OC(C)(C1CCN(CC(F)(F)F)CC1)O2` (stereo not drawn) [Compound 68, 2,4-dimethyl-N-((6-methyl-4-(methylthio)-2-oxo-1,2-dihydropyridin-3-yl)methyl)-7-(2-morpholinopyrimidin-5-yl)-2-(1-(2,2,2-trifluoro)piperidin-4-yl)benzo[d][1,3]dioxole-5-carboxamide], the IC50 (Homo sapiens, Pfeiffer, 264 h) is no more than 10 nM.

Take `CSc1cc(C)[nH]c(=O)c1CNC(=O)c1cc(-c2cnc(N3CCOCC3)nc2)c2c(c1C)OC(C)(C1CCN(CC(F)(F)F)CC1)O2` (stereo not drawn) [Compound 70, 2,4-dimethyl-N-((6-methyl-4-(methylthio)-2-oxo-1,2-dihydropyridin-3-yl)methyl)-7-(2-morpholinopyrimidin-5-yl)-2-(1-(2,2,2-trifluoro)piperidin-4-yl)benzo[d][1,3]dioxole-5-carboxamide]: the IC50 was no less than 100 nM.

In the case of `CCN1CCC(C2(C)Oc3c(-c4cnc(N5CCOCC5)nc4)cc(C(=O)NCc4c(SC)cc(C)[nH]c4=O)c(C)c3O2)CC1` (stereo not drawn) [Compound 74, 2-(1-ethylpiperidin-4-yl)-2,4-dimethyl-N-((6-methyl-4-(methylthio)-2-oxo-1,2-dihydropyridin-3-yl)methyl)-7-(2-morpholinopyrimidin-5-yl)benzo[d][1,3]dioxole-5-carboxamide], the IC50 is no less than 100 nM.

On to `CCN1CCN(c2ncc(-c3cc(C(=O)NCc4c(SC)cc(C)[nH]c4=O)c(C)c4c3OC(C)(C3CCN(CC(F)(F)F)CC3)O4)cn2)CC1` (stereo not drawn) [Compound 75, 7-(2-(4-ethylpiperazin-1-yl)pyrimidin-5-yl)-2,4-dimethyl-N-((6-methyl-4-(methylthio)-2-oxo-1,2-dihydropyridin-3-yl)methyl)-2-(1-(2,2,2-trifluoroethyl)piperidin-4-yl)benzo[d][1,3]dioxole-5-carboxamide], for which the IC50 (Homo sapiens, Pfeiffer, 264 h) was no more than 10 nM.

In the case of `CCN(C)c1ncc(-c2cc(C(=O)NCc3c(SC)cc(C)[nH]c3=O)c(C)c3c2OC(C)(C2CCN(CC(F)(F)F)CC2)O3)cn1` (stereo not drawn) [Compound 78], the IC50 (Homo sapiens, Pfeiffer, 264 h) is no more than 10 nM.

As for `CCN(C)c1ccc(-c2cc(C(=O)NCc3c(SC)cc(C)[nH]c3=O)c(C)c3c2OC(C)(C2CCN(CC(F)(F)F)CC2)O3)cn1` (stereo not drawn) [Compound 87, 7-(6-(ethyl(methyl)amino)pyridin-3-yl)-2,4-dimethyl-N-((6-methyl-4-(methylthio)-2-oxo-1,2-dihydropyridin-3-yl)methyl)-2-(1-(2,2,2-trifluoroethyl)piperidin-4-vi)benzo[d][1,3]dioxole-5-carboxamide], the IC50 was 10 to 100 nM.

On to `CSc1cc(C)[nH]c(=O)c1CNC(=O)c1cc(-c2ccc(N3CCCCC3)cc2)c2c(c1C)OC(C)(C1CCN(CC(F)(F)F)CC1)O2` (stereo not drawn) [Compound 90, 2,4-dimethyl-N-((6-methyl-4-(methylthio)-2-oxo-1,2-dihydropyridin-3-yl)methyl)-7-(4-(piperidin-1-yl)phenyl)-2-(1-(2,2,2-trifluoroethyl)piperidin-4-yl)benzo[d][1,3]dioxole-5-carboxamide], for which, where the note is “Homo sapiens, Pfeiffer, 264 h”, the IC50 lay within 10 to 100 nM.

Values taken from US20250059180A1 (DONG WHA PHARM. CO., LTD., priority 2022, published 2025).
